Data reported in PubChem BioAssay AID330 (DTP/NCI, 2004).
Where “and” joins values, the source holds several entries; their conditions need not be identical. Equal values may be shown once. Inconclusive results and toxic doses are left out. Rule for the calls: active = survival T/C of 150% or more; inactive = T/C below 125% in these data.

Tested on: P388 leukemia ip, CD2F1 mice, survival T/C
Test: NCI In Vivo Anticancer Drug Screen. Data for tumor model P388 Leukemia (intraperitoneal) in CD2F1 (CDF1) mice
Settings: endpoint: median survival time, higher = longer survival
How it was run: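 Mice carrying the transplanted tumor received test compound or vehicle. Survival was recorded in each group, and the value is the treated-group measurement divided by that of the vehicle-treated control group.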

[1] = dose: 12.5 mg/kg/injection, schedule: Q01DX009 (ip), vehicle: saline with Tween-80
[2] = dose: 25.0 mg/kg/injection, schedule: Q01DX009 (ip), vehicle: saline with Tween-80
[3] = dose: 50.0 mg/kg/injection, schedule: Q01DX009 (ip), vehicle: saline with Tween-80
[4] = dose: 100.0 mg/kg/injection, schedule: Q01DX009 (ip), vehicle: saline with Tween-80
[5] = dose: 60.0 mg/kg/injection, schedule: Q01DX005 (ip), vehicle: Klucel (hydroxypropylcellulose) (HPC)
[6] = dose: 120.0 mg/kg/injection, schedule: Q01DX005 (ip), vehicle: Klucel (hydroxypropylcellulose) (HPC)
[7] = dose: 200.0 mg/kg/injection, schedule: Q01DX009 (ip), vehicle: saline with Tween-80
[8] = dose: 50.0 mg/kg/injection, schedule: Q01DX005 (ip), vehicle: Klucel (hydroxypropylcellulose) (HPC)
[9] = dose: 100.0 mg/kg/injection, schedule: Q01DX005 (ip), vehicle: Klucel (hydroxypropylcellulose) (HPC)
[10] = dose: 200.0 mg/kg/injection, schedule: Q01DX005 (ip), vehicle: Klucel (hydroxypropylcellulose) (HPC)
[11] = dose: 50.0 mg/kg/injection, schedule: Q01DX009 (ip), vehicle: saline
[12] = dose: 100.0 mg/kg/injection, schedule: Q01DX009 (ip), vehicle: saline
[13] = dose: 50.0 mg/kg/injection, schedule: Q01DX005 (ip), vehicle: saline
[14] = dose: 100.0 mg/kg/injection, schedule: Q01DX005 (ip), vehicle: saline
[15] = dose: 200.0 mg/kg/injection, schedule: Q01DX005 (ip), vehicle: saline
[16] = dose: 50.0 mg/kg/injection, schedule: Q01DX005 (ip), vehicle: saline with Tween-80
[17] = dose: 100.0 mg/kg/injection, schedule: Q01DX005 (ip), vehicle: saline with Tween-80
[18] = dose: 200.0 mg/kg/injection, schedule: Q01DX005 (ip), vehicle: saline with Tween-80
[19] = dose: 100.0 mg/kg/injection, schedule: Q04DX003 (ip), vehicle: saline with Tween-80
[20] = dose: 200.0 mg/kg/injection, schedule: Q04DX003 (ip), vehicle: saline with Tween-80
[21] = dose: 400.0 mg/kg/injection, schedule: Q04DX003 (ip), vehicle: saline with Tween-80
[22] = dose: 240.0 mg/kg/injection, schedule: Q01DX005 (ip), vehicle: Klucel (hydroxypropylcellulose) (HPC)
[23] = dose: 100.0 mg/kg/injection, schedule: Q01DX001 (ip), vehicle: Klucel (hydroxypropylcellulose) (HPC)
[24] = dose: 200.0 mg/kg/injection, schedule: Q01DX001 (ip), vehicle: Klucel (hydroxypropylcellulose) (HPC)
[25] = dose: 400.0 mg/kg/injection, schedule: Q01DX001 (ip), vehicle: Klucel (hydroxypropylcellulose) (HPC)
[26] = dose: 400.0 mg/kg/injection, schedule: Q01DX009 (ip), vehicle: saline with Tween-80

Measured: T/C

CCn1c(=O)c2[nH]c(-n3c(Cl)nc4c3c(=O)n(CC)c(=O)n4CC)nc2n(CC)c1=O
inactive: dose: 50.0 mg/kg/injection, schedule: Q01DX009 (ip), vehicle: Klucel (hydroxypropylcellulose) (HPC) 101 % of control | dose: 100.0 mg/kg/injection, schedule: Q01DX009 (ip), vehicle: Klucel (hydroxypropylcellulose) (HPC) 98 % of control | dose: 200.0 mg/kg/injection, schedule: Q01DX009 (ip), vehicle: Klucel (hydroxypropylcellulose) (HPC) 120 % of control

CCOC(=O)c1ccc2[nH]c(-c3ccc(S(=O)(=O)F)cc3)cc(=O)c2c1
inactive: [1] 87 % of control | [2] 93 % of control | [3] 96 % of control | [4] 93 % of control

CC(=O)CCC1=C(C)C(=O)C(=O)C(C)=C1O
inactive: [5] 96 % of control | [6] 98 % of control

COc1cc(OC)c(OC)cc1/C=C\c1nccc2ccccc12
inactive: [3] 99 % of control | [4] 96 % of control | [7] 96 % of control

O=C1c2ccccc2C(=O)N1Cc1ccccc1Br
inactive: [8] 103 % of control | [9] 101 % of control | [10] 100 % of control

CCCCCCC(=O)OCCN1CCN(CC/C=C2\c3ccccc3Sc3ccc(C(F)(F)F)cc32)CC1
inactive: dose: 12.5 mg/kg/injection, schedule: Q01DX009 (ip), vehicle: saline 100 % of control and 95 % of control | dose: 12.5 mg/kg/injection, schedule: Q01DX009 (ip), vehicle: suspension in saline 98 % of control | dose: 25.0 mg/kg/injection, schedule: Q01DX009 (ip), vehicle: saline 112 % of control | dose: 25.0 mg/kg/injection, schedule: Q01DX009 (ip), vehicle: suspension in saline 102 % of control and 94 % of control | [11] 106 % of control and 95 % of control | dose: 50.0 mg/kg/injection, schedule: Q01DX009 (ip), vehicle: suspension in saline 100 % of control and 123 % of control and 92 % of control | [12] 99 % of control and 113 % of control | dose: 100.0 mg/kg/injection, schedule: Q01DX009 (ip), vehicle: suspension in saline 107 % of control (2×) and 92 % of control

CC(C(=O)N1CCCC1)C(O)c1ccccc1 (stereo unspecified)
inactive: [13] 105 % of control | [14] 107 % of control | [15] 98 % of control

O=C1CC2(CCc3ccccc32)C(=O)N1CN1CCN(c2ccccn2)CC1 (stereo unspecified)
inactive: [16] 106 % of control | [17] 109 % of control | [18] 92 % of control

O=C1c2c(Cl)c(Cl)c(Cl)c(Cl)c2C(=O)N1O
inactive: dose: 6.25 mg/kg/injection, schedule: Q01DX009 (ip), vehicle: saline with Tween-80 100 % of control | [1] 100 % of control | [2] 104 % of control

COC(=O)c1cc(NC(=O)O/N=C/c2cccnc2)cc(C(=O)OC)c1
inactive: [11] 103 % of control | [12] 91 % of control

COC(=O)N1c2ccccc2C=C(NC(C)=O)C1C#N (stereo unspecified)
inactive: [19] 90 % of control | [20] 100 % of control | [21] 100 % of control

c1c[nH]c(C23CC4CC(CC(C4)C2)C3)n1
inactive: dose: 12.5 mg/kg/injection, schedule: Q01DX005 (ip), vehicle: saline with Tween-80 100 % of control | dose: 25.0 mg/kg/injection, schedule: Q01DX005 (ip), vehicle: saline with Tween-80 100 % of control | [16] 110 % of control and 94 % of control

NC(=O)c1ccc2c3c(ccc(C(N)=O)c13)CC2
inactive: [5] 102 % of control | [6] 109 % of control | [22] 109 % of control

NCCCCCCCC(=O)NCCCCCCCC(=O)NCCCCCCCC(=O)NCCCCCCCC(=O)NN
inactive: [16] 100 % of control | [17] 100 % of control | [18] 91 % of control

O=C(O)c1c[nH]c2cc(OCCOc3ccc4ccccc4c3)ccc2c1=O
inactive: dose: 100.0 mg/kg/injection, schedule: Q04DX003 (ip), vehicle: saline 99 % of control | dose: 200.0 mg/kg/injection, schedule: Q04DX003 (ip), vehicle: saline 88 % of control | dose: 400.0 mg/kg/injection, schedule: Q04DX003 (ip), vehicle: saline 94 % of control

CCOC(=O)/C(C)=C1\N=C(c2ccccc2)OC(=NC2CCCCC2)N1C1CCCCC1
inactive: [16] 96 % of control | [17] 91 % of control | [18] 94 % of control

CSC(=S)n1nc(-c2ccccc2)c(N=Nc2ccccc2[N+](=O)[O-])c1C
inactive: [23] 98 % of control | [24] 102 % of control | [25] 103 % of control

CCCCCCCCCCCCN1CN=C(N)N(C#N)C1
inactive: dose: 100.0 mg/kg/injection, schedule: Q04DX002 (ip), vehicle: saline with Tween-80 92 % of control | dose: 200.0 mg/kg/injection, schedule: Q04DX002 (ip), vehicle: saline with Tween-80 99 % of control | dose: 400.0 mg/kg/injection, schedule: Q04DX002 (ip), vehicle: saline with Tween-80 90 % of control

CCC1SC2=NCCN2C1(O)c1ccc(Cl)cc1 (stereo unspecified)
inactive: [5] 96 % of control | [6] 95 % of control | [22] 89 % of control

O=C1CC2(CCCC2)C(=O)N1c1cccc(Cl)c1
inactive: [23] 97 % of control | [24] 100 % of control | [25] 91 % of control

COP1(OC)(OC)OC(C)=C(C)O1
inactive: [11] 86 % of control | [12] 94 % of control | dose: 200.0 mg/kg/injection, schedule: Q01DX009 (ip), vehicle: saline 86 % of control

COc1ccc(S(=O)(=O)O)cc1NS(=O)(=O)c1ccc(C)cc1
inactive: dose: 60.0 mg/kg/injection, schedule: Q01DX005 (ip), vehicle: saline 102 % of control | dose: 120.0 mg/kg/injection, schedule: Q01DX005 (ip), vehicle: saline 98 % of control | dose: 240.0 mg/kg/injection, schedule: Q01DX005 (ip), vehicle: saline 103 % of control

c1ccc([P+](Cc2ccc(C[P+](c3ccccc3)(c3ccccc3)c3ccccc3)cc2)(c2ccccc2)c2ccccc2)cc1
inactive: dose: 0.07 mg/kg/injection, schedule: Q01DX009 (ip), vehicle: saline sonified 90 % of control | dose: 0.15 mg/kg/injection, schedule: Q01DX009 (ip), vehicle: saline sonified 95 % of control | dose: 0.3 mg/kg/injection, schedule: Q01DX009 (ip), vehicle: saline sonified 90 % of control | dose: 0.6 mg/kg/injection, schedule: Q01DX009 (ip), vehicle: saline sonified 100 % of control

COC1=CC23CC(CC(c4cc(OC)c(OC)c(OC)c4)C2C)OC3=CC1=O (stereo unspecified)
inactive: dose: 4.38 mg/kg/injection, schedule: Q01DX005 (ip), vehicle: Klucel (hydroxypropylcellulose) (HPC) 96 % of control | dose: 8.75 mg/kg/injection, schedule: Q01DX005 (ip), vehicle: Klucel (hydroxypropylcellulose) (HPC) 102 % of control | dose: 17.5 mg/kg/injection, schedule: Q01DX005 (ip), vehicle: Klucel (hydroxypropylcellulose) (HPC) 106 % of control

CCCCC(C)C(=O)/C=C/c1ccccc1 (stereo unspecified)
inactive: [3] 107 % of control and 120 % of control | [4] 108 % of control and 118 % of control | [7] 120 % of control | [26] 117 % of control

O=[N+]([O-])c1ccc2c(N=Nc3ccc4ccccc4c3O)c(O)cc(S(=O)(=O)O)c2c1
inactive: [4] 90 % of control | [19] 95 % of control | [20] 100 % of control | [21] 100 % of control

COc1c(I)c2c(c([N+](=O)[O-])c1OC)C(=O)OC2C1c2c(cc3c(c2OC)OCO3)CCN1C (stereo unspecified)
inactive: dose: 25.0 mg/kg/injection, schedule: Q01DX005 (ip), vehicle: Klucel (hydroxypropylcellulose) (HPC) 92 % of control | [8] 101 % of control | [9] 96 % of control | [10] 91 % of control

NC(=O)n1ncnc1N
inactive: [13] 95 % of control | [3] 107 % of control | [14] 100 % of control | [4] 102 % of control | [15] 102 % of control | [7] 100 % of control | [26] 117 % of control
